Laboratory results from patent US20230125698A1, “APHERESIS COLUMN FOR TREATING RHEUMATOID ARTHRITIS” (UNIVERSITÉ PAUL SABATIER TOULOUSE III, priority 2020, published 2023).
Non-standard residues stand in square brackets, D forms with d. No end group written: not given here. Cit = NC(=O)NCCC[C@H](N)C(=O)O

Columns and labels:
[1] = test system: anti-citrullinated peptide/protein antibodies (ACPA) in serums from AhFibA-positive rheumatoid arthritis patients; assay: ELISA reactivity of rheumatoid arthritis patient serums with respect to the citrullinated peptides; type: binding, human; parameters: key to Reactivity profile of serum with respect to the peptide: +++: strong positive; ++: medium positive; +: weak positive; empty box: negative; settings: for Correlation between the reactivities of the serums with respect to the different peptides (Spearman): 202 serums, peptide pairs compared; for Reactivity profile of serum with respect to the peptide: ELISA
Experimental: Serum samples were obtained from 202 rheumatoid arthritis patients positive for the “AhFibA” ELISA test, which allows to detect and titer the ACPA using the citrullinated human fibrinogen as an immunosorbent.
The antigens or immunosorbents (citrullinated fibrinogen or citrullinated and non-citrullinated peptides), solubilised in PBS (1.5 mM KH2PO4 SIGMA 795488; 7 mM K2HPO4 SIGMA P3786; 0.15M NaCl SIGMA 31434; pH 7.2) at concentrations of 5 and 10 μg/mL, are adsorbed in the microtiter plate wells (MAXISORP NUNC 2023-09) by incubation overnight at 4° C., or used in avidin-biotin system: avidin 5 μg/mL in PBS incubated overnight at 4° C. and then, after washing, biotinylated peptide at 10 μg/mL in PBS, incubated 1 h at 4° C. After blocking in PBS 2% BSA (Sigma A3059) for 1 hour at 4° C. and washing in PBS 0.1% Tween®20 (SIGMA P1379), the samples to be tested are deposited diluted 1:50 (1:100 in the Avidin-Biotin system) or at equivalent corrected dilutions, in PBS 2% BSA 2MNaCl. After washing, the secondary antibody (goat anti-human IgG Fc fragment coupled to horseradish peroxidase; Southern Biotech 2040-05) is incubated for 1 hour at 4° C. After washing, the revelation is performed with a solution of Ortho-Phenylene Diamine dihydrochloride (Sigma P2788), 0.03% H2O2 (Sigma H1009), in citrate/H3PO4 buffer pH5 (0.05 M citric acid Sigma C0759; 0.1 M Na2HPO4 Prolabo 28026292) for 5 minutes at room temperature, and then stopped with a solution of H2SO4 6N (Sigma 07208). The optical density (OD) is read at 492 nm with a Multiskan Fc plate reader (ThermoScientific).
Expression of the results of the ELISA tests: for the peptides, the variation in OD between the reactivity of the citrullinated peptide and the reactivity of the non-citrullinated peptide is taken into account, each reactivity being previously subtracted from its blank (OD in the absence of sample). This gives the following formula:
ΔDO=(DOcit−DOblank cit)−(DOnoncit−DOblank noncit) [Math 1]
The ΔDO for the peptides and the OD for the citrullinated fibrinogen are considered to express the titer of the samples tested.
The inter-assay variations are corrected for by using a range of dilutions of a pool of patient serums tested in each microtiter plate. This reference pool, named P97, was made up of 97 samples of the same volume from 97 patients with a high ACPA titer. The OD values of this internal range are compared to that of reference values where each point in the range is the average of 30 determinations previously performed from this same pool. The least squares method then allows to obtain a correction factor which is applied to all the OD values obtained on the corresponding plate. This corrected OD corresponds to the titer of the sample.
The reactivity profiles of the 202 samples of patient serums with respect to the citrullinated fibrinogen and the 4 citrullinated peptides were determined by ELISA in at least two independent assays, each being done in duplicate. For the sake of reproducibility, only the microtiter plates whose internal range required the application of a correction factor between 0.5 and 2 with respect to the reference range were considered.

[2] = test system: anti-citrullinated peptide/protein antibodies (ACPA) in serums from AhFibA-positive rheumatoid arthritis patients; assay: as above; type: binding, human; settings: β60-74Cit-NH2 and/or Ac-α36-50Cit
[3] = serum n°1, ACPA-positive RA patient serum
[4] = serum n°6, ACPA-positive RA patient serum
[5] = serum n°10, ACPA-positive RA patient serum
[6] = serum n°16, ACPA-positive RA patient serum
[7] = serum n°17, ACPA-positive RA patient serum
[8] = serum n°22, ACPA-positive RA patient serum
[9] = serum n°25, ACPA-positive RA patient serum
[10] = serum n°29, ACPA-positive RA patient serum
[11] = serum n°41, ACPA-positive RA patient serum
[12] = serum n°64, ACPA-positive RA patient serum

Substance | Correlation between the reactivities of the serums with respect to the different peptides (Spearman) [1] | Reactivity profile of serum with respect to the peptide [1, 3] | Reactivity profile of serum with respect to the peptide [1, 4] | Reactivity profile of serum with respect to the peptide [1, 5] | Reactivity profile of serum with respect to the peptide [1, 6] | Reactivity profile of serum with respect to the peptide [1, 7] | Reactivity profile of serum with respect to the peptide [1, 8] | Reactivity profile of serum with respect to the peptide [1, 9] | Reactivity profile of serum with respect to the peptide [1, 10] | Reactivity profile of serum with respect to the peptide [1, 11] | Reactivity profile of serum with respect to the peptide [1, 12] | Reactivity of the plasmas tested to the peptide [2] | Percentage of RA serums positive (reactive in ELISA) for the peptide ([1]; 202 serums from AhFibA-positive RA patients) [%]
GPX1VVEX2HQSACKDS (Ac-GP[Cit]VVE[Cit]HQSACKDS) [Ac-α36-50Cit, N-terminal G acetylated; X1 and X2 citrullyl residues; fibrinogen α-chain 36-50] | no correlation was found | [empty] | [empty] | [empty] | + | + | [empty] | +++ | + | +++ | +++ | most of the plasmas tested were reactive | –
VDIDIKIX1SCX2GSCS (VDIDIKI[Cit]SC[Cit]GSCS; cysteine pairing not given here) [α171-185Cit, X1 and X2 citrullyl residues; fibrinogen α-chain 171-185] | significant correlations | + | + | + | ++ | +++ | +++ | [empty] | [empty] | ++ | [empty] | – | –
X1GHAKSX2PVX3GIHTS ([Cit]GHAKS[Cit]PV[Cit]GIHTS) [α621-635Cit, X1, X2 and X3 citrullyl residues; fibrinogen α-chain 621-635] | significant correlations | + | +++ | [empty] | +++ | +++ | ++ | + | +++ | [empty] | [empty] | – | –
X1PAPPPISGGGYX2AX3 ([Cit]PAPPPISGGGY[Cit]A[Cit]-NH2; N-terminus assumed; SMILES CC[C@H](C)[C@H](NC(=O)[C@@H]1CCCN1C(=O)[C@@H]1CCCN1C(=O)[C@@H]1CCCN1C(=O)[C@H](C)NC(=O)[C@@H]1CCCN1C(=O)[C@@H](N)CCCNC(N)=O)C(=O)N[C@@H](CO)C(=O)NCC(=O)NCC(=O)NCC(=O)N[C@@H](Cc1ccc(O)cc1)C(=O)N[C@@H](CCCNC(N)=O)C(=O)N[C@@H](C)C(=O)N[C@@H](CCCNC(N)=O)C(N)=O) [β60-74Cit-NH2, X1, X2 citrullyl; X3 citrullyl derivative with carboxamide in place of terminal carboxyl; fibrinogen β-chain 60-74] | significant correlations | +++ | +++ | +++ | [empty] | +++ | ++ | ++ | [empty] | [empty] | +++ | most of the plasmas tested were reactive | 76
